Test results from patent publication US9402821B2, “Methods and pharmaceutical compositions for treatment of cystic fibrosis” (INSERM (Institut National de la sante et de la Recherche …, priority 2012, dated 2016).
Entries after “also recorded” stand apart in the source; their conditions may differ.

Key:
Assay type in all cases: cell-based
IκB = test: Western blot of cytosolic IκB after TNFα; settings: HeLa control cells; 500 μM 1 h pre-treatment; TNFα 10 ng/ml 30 min
Description: HeLa control cells were pre-treated with diluent (0.5%) or sulindac (500 μM) for 1 h and stimulated or not with 10 ng/ml TNFα for 30 min. Nuclear and cytosolic fractions were obtained by differential centrifugation. A. Analysis by western blot of cytosolic IKb quantity. The Iκb quantity was expressed in percent of control. […] B. Analysis by western blot of nuclear p65 quantity. Nuclear p65 quantity was expressed in percent of diluents+TNFα.
Nuclear and cytosolic fraction was obtained by differential centrifugation. Briefly, cells were lyses in buffer C (10 mM Hepes, 60 mM KCl, 1 mM EDTA, 7.8% NP40, 100 mM DTT, pH 7.6). After centrifugation, nucleus pellet were lyses in buffer N (27 mM Tris, 566 mM NaCl, 2 mM MgCl2, 1.3 mM EDTA, pH 8). Aliquots of fraction (30 μg protein) were separated by SDS-PAGE and transferred on PVDF membrane. The western blots were probed with mouse monoclonal antibodies specific for IκB or p65 (Santa-Cruz) 2 h at room temperature.

[1] = test system: NF-κB transcriptional activity; test: NF-κB firefly luciferase reporter assay, TNFα-stimulated cells; settings: TNFα 10 ng/ml; BEAS-2B and HeLa cells with wt or deltaF508-CFTR (FIGS. 1A, B)
Description: All cells were transiently transfected by NF-κB firefly luciferase reporter and renilla luciferase reference. A. HeLa control cells (Ctr) were pre-treated with diluent (0.5%) or different doses of sulindac for 1 h and stimulated for 1 h with 10 ng/ml TNFα. After removal of TNFα, cells were incubated for 4 h with sulindac. Luciferase activity was analysed in protein extract. The NF-κB transcriptional activity in cells treated with sulindac+TNFα was expressed in percent of diluent+TNFα. B. Hela cells Wt, DF508 and Ctr were pre-treated with diluent (0.5%), ibuprofen (500 μM) or sulindac (500 μM) for 1 h and stimulated for 1 h with […] TNFα. After removal of TNFα, cells were incubated for 4 h with pharmacological treatment. The NF-κB transcriptional activity in cells treated with ibuprofen+TNFα and sulindac+TNFα was expressed in percent of diluent+TNFα. Results of at least three independent experiments, means±SEM. Unilateral paired t test: * p<0.02
All cells were pre-treated with diluent (0.5%), sulindac ([…]) or sulindac sulfone (250 μM) for 1 h and stimulated for 1 h with 10 ng/ml TNFα. […]
Plasmid Constructs and Transient Transfection To assay the transcriptional activity of NF-κB, pNF-κBLuc, a luciferase reporter plasmid containing five sequential NF-κB binding sites upstream of a minimum promoter element, NF-κB-Luc (Stratagene), was used. Transcriptional activity of the IL-8 promoter was evaluated with reporter constructs consisting of the IL-8 promoter (−133 bp from the transcription start site) fused to the Luciferase gene, kindly provided by Naofumi Mukaida. […]
(§1) Cells were lysed with the Passive Lysis Buffer (Promega), and luciferase activity in the cellular extracts was determined by the Dual Luciferase Assay System (Promega) using a luminometer (Tristar; Berthold). The results were normalized to those obtained with the Renilla luciferase reference plasmid used to control the transfection efficiency, and the values were expressed as luminescence intensity (Luciferase/Renilla). […]
The transcriptional activity of NF-κB and IL-8 promoter was measured as described before. […]

[2] = test system: AP-1 transcriptional activity; test: AP-1 firefly luciferase reporter assay, TNFα-stimulated HeLa cells; settings: 500 μM, TNFα 10 ng/ml
Description: HeLa cells were transiently transfected by AP-1 firefly luciferase reporter and renilla luciferase reference. HeLa control cells were pre-treated with diluent (0.5%), ibuprofen (500 μM) or sulindac (500 μM) for 1 h and stimulated for 1 h with 10 ng/ml TNFα. After removal of TNFα, cells were incubated for 4 h with pharmacological treatment. The AP-1 transcriptional activity in cells treated with ibuprofen+TNFα and sulindac +TNFα was expressed in percent of diluent+TNFα. Results of three independent experiments, means±SEM. Unilateral paired t test: ** p<0.01. To assay the transcriptional activity of AP-1, pAP1Luc, a luciferase reporter plasmid containing five sequential AP-1 binding sites upstream of a minimum promoter element, was used. […] To normalize transfection efficiency, a renilla luciferase reporter construct (pRL-TK, Promega) was co-transfected with each of the firefly luciferase constructs. To induced AP-1 activity, cells were exposed to TNFα (10 ng/mL) for 1 hour. Cells were pre- and treated with sulindac, ibuprofen or vehicule control one hour before and four hours after this induction.

IL-8 promoter = IL-8 promoter luciferase reporter / IL-8 mRNA qPCR, TNFα-stimulated cells; settings: TNFα 10 ng/ml; bronchial epithelial cells and heterologous HeLa models (FIGS. 2A, B)
Description: Cells were transiently transfected by the short IL-8 promoter-firefly luciferase reporter and renilla luciferase reference and inflammation was induced by 10 ng/ml TNFα for 1 h. A. HeLa cells were pre-treated with diluent or different doses of sulindac 1 h before inflammation induction and 4 h after. IL-8 promoter activity in cells treated with sulindac+TNFα was expressed in percent of diluent+TNFα. B. After treatment, HeLa Ctr cells were lysed with TRIzol (Invitrogen). Total RNA was extracted, and 1 μg of total RNA was reverse transcribed with a reverse transcription kit. IL-8 mRNA expression was quantified by real-time quantitative PCR (qPCR). The comparative threshold cycle (CT) method was used for relative quantification of PCR products after IL-8 was normalised to TBP (ΔCt=CtIL-8−CtTBP). […] C After treatment, IL-8 in supernatant was measured by ELISA. The IL-8 stimulation of cells treated with test drug +TNFα were expressed as fold compared to drug −TNFα. […]
as §1

## CC1=C(CC(=O)O)c2cc(F)ccc2/C1=C\c1ccc([S+](C)[O-])cc1 (stereo not shown) [sulindac, (Z)-5-fluoro-2-methyl-1-[p-(methylsulfinyl)benzylidene]-indene-3-acetic acid]
IκB
  degradation of cytosolic IκB induced by TNFα: did not modified this effect; also recorded: did not affect the degradation of IκB
[1]
  transcriptional activity of NF-κB: inhibits transcriptional activity of NF-κB
[2]
  AP-1 transcriptional activity induced by TNF: causes a decrease in the induction
IL-8 promoter
  IL-8 transcription: decreased IL-8 transcription
